From patent US20260306491A1, “EGFR INHIBITOR FOR TREATING CANCERS COMPRISING ATYPICAL EGFR MUTATIONS” (ORIC Pharmaceuticals, Inc., priority 2023, published 2026)
Where a name gives a salt, the structure may show the parent alone.

What was measured:
[1] = Solubility screening of malonate salt of Compound I in various solvents at RT; type: physicochemical
Experimental: The solubility of the malonate salt of Compound I as prepared according to Example 2 in various solvents at RT was measured. The malonate salt of Compound I (approximately 2 mg) was added to a 3-mL glass vial. The solvent was then added stepwise (50/50/200/200/500/1000 μL) into the vial until the solids were dissolved visually or a total volume of 2 mL was reached.

[2] = Moisture uptake by dynamic vapor sorption (DVS); type: physicochemical; settings: 25° C./80% relative humidity
Experimental: DVS was measured via a SMS (Surface Measurement Systems) DVS Intrinsic.
The relative humidity at 25° C. was calibrated against deliquescence point of LiCl, Mg(NO3)2 and KCl.
Freebase Compound I was stirred with an equimolar amount of malonic acid in acetone at RT for 14.5 hrs. The slurry was subjected to vacuum drying at 50° C. for about 6 hrs. The malonate salt of Compound I was analyzed by XRPD, DSC, TGA, ^1H NMR, and DVS. […] As shown in the TGA graph, a weight loss of about 0.7% up to 130° C. was observed.
Freebase Compound I was stirred with an equimolar amount of glycolic acid in acetone at RT for 2 days, followed by vacuum drying at 50° C. for 2 hrs. The glycolate salt of Compound I was analyzed by XRPD, DSC, TGA, ^1H NMR, and DVS. […] As shown in the TGA graph, a weight loss of about 1.3% up to 120° C. was observed.

[3] = Biodistribution in plasma and brain after single oral dose in female CB17 SCID mice; type: in vivo; settings: mouse, oral 50 mg/kg, 8 h
Experimental: Female non-tumor bearing Fox Chase CB17 SCID mice were orally administered a single dose as specified in Table B1.
Brain tissues were excised and plasma was collected from all the animals receiving Compound I, or tucatinib at 1 hour, 4 hours, and 8 hours post-administration. Tucatinib was used as a reference agent. Tucatinib is a clinically approved therapy for HER2 positive breast cancer patients with brain metastases. The harvested brains were rinsed in ice-cold phosphate-buffered saline and weighed. All plasma and brain samples were stored at approximately −80° C. until thawed for LC-MS/MS analysis.
Prior to analysis, brain tissues were homogenized 1:5 with phosphate buffer. Average free brain-to-free plasma ratio (Kp,uu) was calculated from individual mice by using total concentration values determined in the brain and plasma at individual time points, or by calculating the area under the curve (AUC) and converting the values to free concentration (or AUC) with in vitro binding parameters determined in the brain (fu,b) and plasma (fu,p) as follows:
Kp,uu=Brain Concentration (or AUC)*fu,b/Plasma Concentration (or AUC)*fu,p.
Free fraction in the brain (fu,b) and in plasma (fu,p) was determined with equilibrium dialysis as follows: The brain tissue homogenate or plasma from the mice were spiked to yield a final concentration of 1 μM Compound I, or 5 μM tucatinib. Compound I and tucatinib were incubated in equilibrium dialysis plate on a shaking incubator at 37° C. with 5% CO2 at 450 rpm for 8 hours and 24 hours, respectively. Following the incubation, aliquots of the matrix and the buffer samples were sampled and the concentration of Compound I, or tucatinib were determined.
where fu,b,d is fraction unbound determined with 20% brain homogenate.

C=CC(=O)Nc1cc(Nc2cc(N3OCC[C@@H]3c3cc(F)cc(F)c3)ncn2)c(OC)cc1N1CCC(N2CCN(C3CC3)CC2)CC1 [malonate salt of Compound I]
solubility ([1]; Water, RT): < 1200 µg/mL
solubility ([1]; organic solvent or mixture, 1,4-Dioxane, RT): 2100 to 7000 µg/mL
solubility ([1]; organic solvent or mixture, 2-MeTHF, RT): 1100 to 2200 µg/mL
solubility ([1]; organic solvent or mixture, ACN, RT): 6000 to 18000 µg/mL
solubility ([1]; organic solvent or mixture, Acetone, RT): 1100 to 2200 µg/mL
solubility ([1]; organic solvent or mixture, Anisole, RT): < 900 µg/mL
solubility ([1]; organic solvent or mixture, CHCl3, RT): > 40000 µg/mL
solubility ([1]; organic solvent or mixture, CPME, RT): < 1100 µg/mL
solubility ([1]; organic solvent or mixture, DCM, RT): 20000 to 40000 µg/mL
solubility ([1]; organic solvent or mixture, DMSO, RT): > 40000 µg/mL
solubility ([1]; organic solvent or mixture, EtOAc, RT): < 1000 µg/mL
solubility ([1]; organic solvent or mixture, EtOH, RT): 1900 to 6300 µg/mL
solubility ([1]; organic solvent or mixture, IPA, RT): < 1200 µg/mL
solubility ([1]; organic solvent or mixture, IPAc, RT): < 900 µg/mL
solubility ([1]; organic solvent or mixture, MIBK, RT): < 1200 µg/mL
solubility ([1]; organic solvent or mixture, MTBE, RT): < 1000 µg/mL
solubility ([1]; organic solvent or mixture, MeOH, RT): > 46000 µg/mL
solubility ([1]; organic solvent or mixture, THF, RT): 2100 to 7000 µg/mL
solubility ([1]; organic solvent or mixture, Toluene, RT): < 1000 µg/mL
solubility ([1]; organic solvent or mixture, n-Heptane, RT): < 1100 µg/mL
Moisture uptake [2]: 0.19%

Cc1cc(Nc2ncnc3ccc(NC4=NC(C)(C)CO4)cc23)ccc1Oc1ccn2ncnc2c1 [tucatinib, reference compound]
Unbound brain concentration [3]: below the limit of quantitation (BLOQ)
